Source: patent US5541183A, “Ginkgolide derivatives” (priority 1993, dated 1996)
Read-outs that look alike come from different tables or passages of the source.

System: PAF-induced rabbit platelet aggregation
Assay: PAF-induced rabbit platelet aggregation
Assay type: cell-based, rabbit (New Zealand white)
Settings: Oryctolagus cuniculus, read-out: IC50, inhibition of PAF-induced rabbit platelet aggregation
Protocol: Pharmacology Example 1: PAF-induced rabbit platelet aggregation
Blood was collected from the ear artery of a male New Zealand white rabbit and mixed with 3.8% sodium citrate in a 9:1 volume ratio. Platelet rich plasma (PRP) was obtained by centrifugation of the blood at 150 g for 10 min at room temperature. The number of platelets was adjusted to 3×10^8 platelets/ml with platelet poor plasma. Platelet aggregation was monitored by continuous recording of light transmission in a dual-channel aggregometer (Chrono-Log 560-VS) coupled with a two channel recorder (Chrono-Log 707). Stirred PRP was treated with various concentrations of the test compounds or vehicle (0.5% DMSO) for 2 min and then PAF(5×10^-9 M) was added to induce platelet aggregation.
Inhibition values were calculated by comparing the extent of aggregation obtained in the presence of the vehicle alone (0.5% DMSO) and in the presence of a test compound. Log concentration-response curves were generated and the IC50 values were determined by regression analysis.
Table 1 lists results from this assay for inhibition of PAF-induced rabbit platelet aggregation for illustrative examples of the compounds of this invention.

| IC50 (rabbit PRP, PAF 5×10^-9 M) | SMILES | IC50 |
| --- | --- | --- |
|  | CC1C(=O)OC2C(O)C34C5CC(C(C)(C)C)C36C(OC(=O)C6OCc3ccc(I)cc3)OC4(C(=O)O5)C12O (stereo not shown) [Example 5] | 50.1 nM |
| 110 nM | Cc1cnc(COC2C(=O)OC3OC45C(=O)OC6CC(C(C)(C)C)C32C64C(O)C2OC(=O)C(C)C25O)c(C)c1NO (stereo not shown) [Example 104, 10-(3,5-dimethyl-4-hydroxyamino-2-pyridinyl)-methoxy-Ginkgolide B] |  |
| 94.7 nM | CC1C(=O)OC2C(O)C34C5CC(C(C)(C)C)C36C(OC(=O)C6OCc3ccc(Cl)cc3)OC4(C(=O)O5)C12O (stereo not shown) [Example 3, 10-(4'-chlorobenzyloxy)-Ginkgolide B] |  |
| 47.1 nM | CC1C(=O)OC2C(O)C34C5CC(C(C)(C)C)C36C(OC(=O)C6OCCN3CCCCC3)OC4(C(=O)O5)C12O (stereo not shown) [Example 118, 10-(2'-(1"-piperidinyl)-ethoxy)-Ginkgolide B] |  |
| 117 nM | CC1C(=O)OC2C(O)C34C5CC(C(C)(C)C)C36C(OC(=O)C6OCCc3ccccc3)OC4(C(=O)O5)C12O (stereo not shown) [Example 79, 10-(2'-phenylethoxy)-Ginkgolide B] |  |
| 124 nM | CCCOc1ccc(C)nc1COC1C(=O)OC2OC34C(=O)OC5CC(C(C)(C)C)C21C53C(O)C1OC(=O)C(C)C14O (stereo not shown) [Example 112] |  |
| 65.1 nM | COc1cc(COC2C(=O)OC3OC45C(=O)OC6CC(C(C)(C)C)C32C64C(O)C2OC(=O)C(C)C25O)cc(OC)c1O (stereo not shown) [Example 32] |  |
| 73.1 nM | CC1C(=O)OC2C(O)C34C5CC(C(C)(C)C)C36C(OC(=O)C6OCc3cccc(C(F)(F)F)c3)OC4(C(=O)O5)C12O (stereo not shown) [Example 93, 10-(3'-trifiuoromethylbenzyloxy)-Ginkgolide B] |  |
| 74.1 nM | Cc1ccccc1COC1C(=O)OC2OC34C(=O)OC5CC(C(C)(C)C)C21C53C(O)C1OC(=O)C(C)C14O (stereo not shown) [Example 41, 10-(2'-methylbenzyloxy)-Ginkgolide B] |  |
| 131 nM | Cc1cnc(COC2C(=O)OC3OC45C(=O)OC6CC(C(C)(C)C)C32C64C(O)C2OC(=O)C(C)C25O)c(C)c1[N+](=O)[O-] (stereo not shown) [Example 98, 10-(3,5-dimethyl-4-nitro-2-pyridinyl)-methoxy-Ginkgolide B] |  |
| 122 nM | CC1C(=O)OC2C(O)C34C5CC(C(C)(C)C)C36C(OC(=O)C6OCc3ccncc3)OC4(C(=O)O5)C12O (stereo not shown) [Example 109, 10-(4-pyridinyl)-methoxy-Ginkgolide B] |  |
| 32.1 nM | CC1C(=O)OC2C(O)C34C5CC(C(C)(C)C)C36C(OC(=O)C6OCc3ccc(F)cc3)OC4(C(=O)O5)C12O (stereo not shown) [Example 85, 10-(4'-fluorobenzyloxy)-Ginkgolide B] |  |
| 134 nM | CC1C(=O)OC2C(O)C34C5CC(C(C)(C)C)C36C(OC(=O)C6OCc3cccnc3)OC4(C(=O)O5)C12O (stereo not shown) [Example 108, 10-(3-pyridinyl)-methoxy-Ginkgolide B] |  |
|  | CC1C(=O)OC2C(O)C34C5CC(C(C)(C)C)C36C(OC(=O)C6OCc3ccc(O)c(O)c3)OC4(C(=O)O5)C12O (stereo not shown) [Example 30] | 121 nM |
|  | CC1C(=O)OC2C(O)C34C5CC(C(C)(C)C)C36C(OC(=O)C6OCc3ccc(F)cc3F)OC4(C(=O)O5)C12O (stereo not shown) [Example 86, 10-(2',4'-difluorobenzyloxy)-Ginkgolide B] | 50.1 nM |
| 107 nM | CC1C(=O)OC2C(O)C34C5CC(C(C)(C)C)C36C(OC(=O)C6OCc3cc([N+](=O)[O-])ccn3)OC4(C(=O)O5)C12O (stereo not shown) [Example 111, 10-(4-nitro-2-myridinyl)-methoxy Ginkgolide B] |  |
| 56.1 nM | CC1C(=O)OC2C(O)C34C5CC(C(C)(C)C)C36C(OC(=O)C6OCCN3CCCC3)OC4(C(=O)O5)C12O (stereo not shown) [Example 122, 10-(2'-(1"-pyrrolidinyl)-ethoxy)-Ginkgolide B] |  |
| 68.8 nM | CC1C(=O)OC2C(O)C34C5CC(C(C)(C)C)C36C(OC(=O)C6OCc3ccccc3)OC4(C(=O)O5)C12O (stereo not shown) [Example 1, 10-benzyloxy-Ginkgolide B] |  |
|  | CC1C(=O)OC2C(O)C34C5CC(C(C)(C)C)C36C(OC(=O)C6OCCI)OC4(C(=O)O5)C12O (stereo not shown) [Example 117, 10-(2'-iodoethoxy)-Ginkgolide B] | 53.4 nM |
